Assay results published in patent publication US10626089B2, “Quinoline derivative in crystal form” (GB001, Inc., priority 2016, dated 2020).
Structures can show the parent of a compound that is named as a salt.

Assays:
[1] = Storage stability: total related substances by liquid chromatography before and after storage; assay type: physicochemical; details: for total amount of related substances (produced impurities), at the start: before storage; for total amount of related substances (produced impurities), at the start / total amount of related substances (produced impurities), after 3 months: liquid chromatography, related substances measured to ≥0.03%; for total amount of related substances (produced impurities), after 3 months: tightly sealed glass vessel, relative humidity 75° C.
Protocol: The storage stability of the compound (I) crystal form A obtained in example 1 was compared with that of the free-form crystals obtained in comparative example 1.
The respective crystals were introduced into a glass vessel which was then tightly sealed and stored at 40° C., relative humidity […] for 3 months; the amount of related substances before and after storage was measured by liquid chromatography; the results are shown in Table 1. The values are the total amount of related substances, which are produced impurities, as measured to ≥0.03%.

[2] = Retention of water of crystallization on heated drying under reduced pressure; assay type: physicochemical; details: 80° C.
Text: Inventive crystal form B of compound (I) is a hydrate crystal form, and can be obtained using a combination of solvents that includes water. Alcohols such as ethanol and 2-propanol are preferred as the solvent used in combination with water. For example, the crystal form can be obtained by dissolving compound (I) in a mixed solvent containing ethanol and water at a ratio of 1:1 (80×volume), concentrating and then drying. The drying can comprise natural drying, drying under reduced pressure, heated drying, or heated drying under reduced pressure.

| Structure (SMILES) | melting point [°C] | storage stability compared with the free-form crystals ([1]; 40° C., relative humidity 75, 3 months) | total amount of related substances (produced impurities), at the start [1] [%] | total amount of related substances (produced impurities), after 3 months ([1]; 40° C.) [%] | loss of water of crystallization [2] |
| --- | --- | --- | --- | --- | --- |
| CCc1nc2c(Cl)ccc(OCC(=O)O)c2c(OC(F)F)c1Cc1ccc(Cl)cc1 (as salt: salt) [Free-form crystals, [8-chloro-3-(4-chlorobenzyl)-4-difluoromethoxy-2-ethylquinolin-5-yloxy]acetic Acid] | 141 |  |  |  |  |
| CCc1nc2c(Cl)ccc(OCC(=O)O)c2c(OC(F)F)c1Cc1ccc(Cl)cc1.NCCCC[C@H](N)C(=O)O [Compound (I) crystal form A, [8-chloro-3-(4-chlorobenzyl)-4-difluoro-methoxy-2-ethylquinolin-5-yloxy]acetic Acid L-Lysine Salt in Crystal Form A] |  | better storage stability than the free-form crystals | 0.53 | 0.59 |  |
| CCc1nc2c(Cl)ccc(OCC(=O)O)c2c(OC(F)F)c1Cc1ccc(Cl)cc1 [Free-form crystals, [8-chloro-3-(4-chlorobenzyl)-4-difluoromethoxy-2-ethylquinolin-5-yloxy]acetic Acid, reference compound] |  |  | 1.37 | 1.95 |  |
| CCc1nc2c(Cl)ccc(OCC(=O)O)c2c(OC(F)F)c1Cc1ccc(Cl)cc1.NCCCC[C@H](N)C(=O)O [crystal form B of compound (I), [8-chloro-3-(4-chlorobenzyl)-4-difluoro-methoxy-2-ethylquinolin-5-yloxy]acetic Acid L-Lysine Salt in Crystal Form B] |  |  |  |  | no water of crystallization is lost even at 80 °C |
